The target in test [1] is human GLP-1 receptor (hGLP-1R) (Homo sapiens, UniProt P43220). In words: cAMP production (HTRF) in CHO cells expressing hGLP-1R. The class given is cell-based. On the set-up: expressed in transfected cells. As to conditions: for EC50: Table 6, peptides modified at position 17, cAMP in CHO hGLP-1R cells, geometric mean, read-out: hGLP-1R EC50; for % Relative Potency Ratio: Table 6, % GLP-1R activity relative to GLP-1 / % GlucR activity relative to glucagon. The method, boiled down:
(§1)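 Potency values represent EC50 from 4-parameter logistic curves of HTRF % Delta F signal. Receptor-expressing CHO cells (hGCGR 2×10^5 cells/mL, hGLP-1R 1×10^5 cells/mL) were exposed for 30 min at room temperature before two-step cAMP detection.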

The target in test [2] is human glucagon receptor (hGCGR) (Homo sapiens, UniProt P47871). Description: cAMP production (HTRF) in CHO cells expressing hGCGR. In kind it is cell-based. On the set-up: expressed in transfected cells. As to conditions: Table 6, peptides modified at position 17; cAMP in CHO hGCGR cells; geometric mean; read-out: hGluc-R EC50. The method, boiled down: as §1
human glucagon receptor (hGCGR), sequence (P47871 26-477): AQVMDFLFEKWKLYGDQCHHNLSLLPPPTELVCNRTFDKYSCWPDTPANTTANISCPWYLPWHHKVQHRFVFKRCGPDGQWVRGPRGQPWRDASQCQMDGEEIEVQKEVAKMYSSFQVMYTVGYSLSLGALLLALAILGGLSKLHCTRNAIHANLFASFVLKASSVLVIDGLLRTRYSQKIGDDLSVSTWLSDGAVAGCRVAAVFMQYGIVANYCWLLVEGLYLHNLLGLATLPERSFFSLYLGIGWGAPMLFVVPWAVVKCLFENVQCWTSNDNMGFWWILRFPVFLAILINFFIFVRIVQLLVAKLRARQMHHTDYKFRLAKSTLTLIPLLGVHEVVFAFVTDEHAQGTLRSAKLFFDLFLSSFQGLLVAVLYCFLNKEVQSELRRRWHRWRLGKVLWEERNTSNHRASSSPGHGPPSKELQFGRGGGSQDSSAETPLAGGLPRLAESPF

Structures are written as SMILES. Starred links: 1 amine or outer side, 2 acyl side, 3 side chain; linkers in the order of their positions; H or OH if unused. Non-standard residues stand in square brackets, D forms with d. Residues, ends and D or L forms follow the SMILES beside them. Groups on a side chain read outwards from the residue. *: point of attachment. Dip = N[C@H](C(=O)O)C(c1ccccc1)c1ccccc1; γGlu = O=C(O)[C@H](CCC(=O)[*:2])N[*:1]; Stearoyl = CCCCCCCCCCCCCCCCCC(=O)*; Palmitoyl = CCCCCCCCCCCCCCCC(=O)*; αMeF = C[C@](N)(Cc1ccccc1)C(=O)O; PEG4 = NCCOCCOCCOCCOCCC(=O)O; PEG2 = NCCOCCOCCC(=O)O; Aib = CC(C)(N)C(=O)O

human GLP-1 receptor (hGLP-1R), sequence (P43220 24-463): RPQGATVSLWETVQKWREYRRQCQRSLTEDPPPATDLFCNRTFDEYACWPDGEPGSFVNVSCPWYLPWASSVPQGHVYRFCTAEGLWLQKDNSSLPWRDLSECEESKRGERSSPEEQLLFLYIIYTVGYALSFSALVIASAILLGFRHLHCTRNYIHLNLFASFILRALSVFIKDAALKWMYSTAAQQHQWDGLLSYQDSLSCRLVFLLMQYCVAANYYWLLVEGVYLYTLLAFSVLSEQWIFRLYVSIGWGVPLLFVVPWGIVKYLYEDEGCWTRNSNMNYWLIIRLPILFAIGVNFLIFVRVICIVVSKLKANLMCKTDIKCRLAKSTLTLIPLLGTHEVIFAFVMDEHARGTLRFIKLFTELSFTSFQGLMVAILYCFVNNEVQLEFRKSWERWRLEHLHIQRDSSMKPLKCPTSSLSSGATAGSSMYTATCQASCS

Take `CCCCCCCCCCCCCCCCCC(=O)NCCOCCOCCC(=O)N[C@@H](CCC(=O)NCCOCCOCCC(=O)N[C@@H](CCC(=O)NCCCC[C@H](NC(=O)[C@H](CO)NC(=O)[C@H](CC(=O)O)NC(=O)[C@H](CC(C)C)NC(=O)[C@@H](NC(=O)[C@H](CCCCN)NC(=O)[C@H](CO)NC(=O)[C@@H](NC(=O)[C@H](CC(=O)O)NC(=O)[C@H](CO)NC(=O)[C@@H](NC(=O)[C@](C)(Cc1ccccc1)NC(=O)[C@H](CO)NC(=O)CNC(=O)[C@H](CCC(N)=O)NC(=O)[C@H](CO)NC(=O)[C@@H](N)Cc1c[nH]cn1)[C@@H](C)O)C(C)C)C(c1ccccc1)c1ccccc1)C(=O)N[C@@H](C)C(=O)N[C@@H](C)C(=O)N[C@@H](CCC(N)=O)C(=O)N[C@@H](CC(=O)O)C(=O)N[C@@](C)(Cc1ccccc1)C(=O)N[C@H](C(=O)N[C@@H](CCC(=O)O)C(=O)NC(C)(C)C(=O)N[C@H](C(=O)N[C@H](C(=O)N[C@@H](CC(N)=O)C(=O)N[C@H](C(N)=O)[C@@H](C)O)[C@@H](C)CC)[C@@H](C)CC)C(C)C)C(=O)O)C(=O)O` [Peptide 60] (H-HSQGS[αMeF]TSDVSK[Dip]LDSK([γGlu-PEG2-γGlu-PEG2-Stearoyl])AAQD[αMeF]VE[Aib]IINT-NH2; N-terminus assumed): in test [1], the EC50 stood at 5.16 pM and the “% Relative Potency Ratio” value came to 8.1. For the same compound, the EC50 in test [2] stood at 21.1 pM.

For the compound `CCCCCCCCCCCCCCCCCC(=O)N[C@@H](CCC(=O)NCCOCCOCCC(=O)N[C@@H](CCC(=O)NCCOCCOCCC(=O)NCCCC[C@H](NC(=O)[C@H](CO)NC(=O)[C@H](CC(=O)O)NC(=O)[C@H](CC(C)C)NC(=O)[C@@H](NC(=O)[C@H](CCCCN)NC(=O)[C@H](CO)NC(=O)[C@@H](NC(=O)[C@H](CC(=O)O)NC(=O)[C@H](CO)NC(=O)[C@@H](NC(=O)[C@](C)(Cc1ccccc1)NC(=O)[C@H](CO)NC(=O)CNC(=O)[C@H](CCC(N)=O)NC(=O)[C@H](CO)NC(=O)[C@@H](N)Cc1c[nH]cn1)[C@@H](C)O)C(C)C)C(c1ccccc1)c1ccccc1)C(=O)N[C@@H](C)C(=O)N[C@@H](C)C(=O)N[C@@H](CCC(N)=O)C(=O)N[C@@H](CC(=O)O)C(=O)N[C@@](C)(Cc1ccccc1)C(=O)N[C@H](C(=O)N[C@@H](CCC(=O)O)C(=O)NC(C)(C)C(=O)N[C@H](C(=O)N[C@H](C(=O)N[C@@H](CC(N)=O)C(=O)N[C@H](C(N)=O)[C@@H](C)O)[C@@H](C)CC)[C@@H](C)CC)C(C)C)C(=O)O)C(=O)O` [Peptide 61] (H-HSQGS[αMeF]TSDVSK[Dip]LDSK([PEG2-γGlu-PEG2-γGlu-Stearoyl])AAQD[αMeF]VE[Aib]IINT-NH2; N-terminus assumed), in test [1], the EC50 was found to be 4.12 pM and the “% Relative Potency Ratio” value turned out to be 4.6. For the same compound, the EC50 in test [2] is 9.55 pM.

Turning to `CCCCCCCCCCCCCCCC(=O)N[C@@H](CCC(=O)N[C@@H](CCC(=O)NCCOCCOCCC(=O)NCCOCCOCCC(=O)NCCCC[C@H](NC(=O)[C@H](CO)NC(=O)[C@H](CC(=O)O)NC(=O)[C@H](CC(C)C)NC(=O)[C@@H](NC(=O)[C@H](CCCCN)NC(=O)[C@H](CO)NC(=O)[C@@H](NC(=O)[C@H](CC(=O)O)NC(=O)[C@H](CO)NC(=O)[C@@H](NC(=O)[C@](C)(Cc1ccccc1)NC(=O)[C@H](CO)NC(=O)CNC(=O)[C@H](CCC(N)=O)NC(=O)[C@H](CO)NC(=O)[C@@H](N)Cc1c[nH]cn1)[C@@H](C)O)C(C)C)C(c1ccccc1)c1ccccc1)C(=O)N[C@@H](C)C(=O)N[C@@H](C)C(=O)N[C@@H](CCC(N)=O)C(=O)N[C@@H](CC(=O)O)C(=O)N[C@@](C)(Cc1ccccc1)C(=O)N[C@H](C(=O)N[C@@H](CCC(=O)O)C(=O)NC(C)(C)C(=O)N[C@H](C(=O)N[C@H](C(=O)N[C@@H](CC(N)=O)C(=O)N[C@H](C(N)=O)[C@@H](C)O)[C@@H](C)CC)[C@@H](C)CC)C(C)C)C(=O)O)C(=O)O` [Peptide 64] (H-HSQGS[αMeF]TSDVSK[Dip]LDSK([PEG2-PEG2-γGlu-γGlu-Palmitoyl])AAQD[αMeF]VE[Aib]IINT-NH2; N-terminus assumed), in test [1], the EC50 worked out at 2.57 pM and the “% Relative Potency Ratio” value was determined as 2.4. Moreover, the EC50 in test [2] came to 3.06 pM.

On to `CCCCCCCCCCCCCCCCCC(=O)N[C@@H](CCC(=O)N[C@@H](CCC(=O)NCCOCCOCCC(=O)NCCOCCOCCC(=O)NCCCC[C@H](NC(=O)[C@H](CO)NC(=O)[C@H](CC(=O)O)NC(=O)[C@H](CC(C)C)NC(=O)[C@@H](NC(=O)[C@H](CCCCN)NC(=O)[C@H](CO)NC(=O)[C@@H](NC(=O)[C@H](CC(=O)O)NC(=O)[C@H](CO)NC(=O)[C@@H](NC(=O)[C@](C)(Cc1ccccc1)NC(=O)[C@H](CO)NC(=O)CNC(=O)[C@H](CCC(N)=O)NC(=O)C(C)(C)NC(=O)[C@@H](N)Cc1c[nH]cn1)[C@@H](C)O)C(C)C)C(c1ccccc1)c1ccccc1)C(=O)N[C@@H](C)C(=O)N[C@@H](C)C(=O)N[C@@H](CCC(N)=O)C(=O)N[C@@H](CC(=O)O)C(=O)N[C@@](C)(Cc1ccccc1)C(=O)N[C@H](C(=O)N[C@@H](CCC(N)=O)C(=O)NC(C)(C)C(=O)N[C@H](C(=O)N[C@@H](C)C(=O)N[C@@H](CC(N)=O)C(N)=O)[C@@H](C)CC)C(C)C)C(=O)O)C(=O)O` [Peptide 66] (H-H[Aib]QGS[αMeF]TSDVSK[Dip]LDSK([PEG2-PEG2-γGlu-γGlu-Stearoyl])AAQD[αMeF]VQ[Aib]IAN-NH2; N-terminus assumed), for which, in test [1], the EC50 was determined as 1.52 pM and the “% Relative Potency Ratio” value is 8.3. For the same compound, the EC50 in test [2] stood at 6.43 pM.

On to `CCCCCCCCCCCCCCCC(=O)N[C@@H](CCC(=O)NCCOCCOCCC(=O)NCCOCCOCCC(=O)NCCCC[C@H](NC(=O)[C@H](CO)NC(=O)[C@H](CC(=O)O)NC(=O)[C@H](CC(C)C)NC(=O)[C@@H](NC(=O)[C@H](CCCCN)NC(=O)[C@H](CO)NC(=O)[C@@H](NC(=O)[C@H](CC(=O)O)NC(=O)[C@H](CO)NC(=O)[C@@H](NC(=O)[C@](C)(Cc1ccccc1)NC(=O)[C@H](CO)NC(=O)CNC(=O)[C@H](CCC(N)=O)NC(=O)C(C)(C)NC(=O)[C@@H](N)Cc1c[nH]cn1)[C@@H](C)O)C(C)C)C(c1ccccc1)c1ccccc1)C(=O)N[C@@H](C)C(=O)N[C@@H](C)C(=O)N[C@@H](CCC(N)=O)C(=O)N[C@@H](CC(=O)O)C(=O)N[C@@](C)(Cc1ccccc1)C(=O)N[C@H](C(=O)N[C@@H](CCC(N)=O)C(=O)NC(C)(C)C(=O)N[C@H](C(=O)N[C@@H](C)C(=O)N[C@@H](CC(N)=O)C(N)=O)[C@@H](C)CC)C(C)C)C(=O)O` [Peptide 67] (H-H[Aib]QGS[αMeF]TSDVSK[Dip]LDSK([PEG2-PEG2-γGlu-Palmitoyl])AAQD[αMeF]VQ[Aib]IAN-NH2; N-terminus assumed), for which, in test [1], the EC50 worked out at 2.43 pM and the “% Relative Potency Ratio” value is 7.7. Moreover, in test [2], the concentration giving a half-maximal response (EC50) is 9.49 pM.

Take `CCCCCCCCCCCCCCCCCC(=O)N[C@@H](CCC(=O)N[C@@H](CCC(=O)NCCOCCOCCOCCOCCC(=O)NCCCC[C@H](NC(=O)[C@H](CO)NC(=O)[C@H](CC(=O)O)NC(=O)[C@H](CC(C)C)NC(=O)[C@](C)(Cc1ccccc1)NC(=O)[C@H](CCCCN)NC(=O)[C@H](CO)NC(=O)[C@@H](NC(=O)[C@H](CC(=O)O)NC(=O)[C@H](CO)NC(=O)[C@@H](NC(=O)[C@](C)(Cc1ccccc1)NC(=O)[C@H](CO)NC(=O)CNC(=O)[C@H](CCC(N)=O)NC(=O)C(C)(C)NC(=O)[C@@H](N)Cc1c[nH]cn1)[C@@H](C)O)C(C)C)C(=O)N[C@@H](CCCNC(=N)N)C(=O)N[C@@H](C)C(=O)N[C@@H](CCC(N)=O)C(=O)N[C@@H](CC(=O)O)C(=O)N[C@@](C)(Cc1ccccc1)C(=O)N[C@H](C(=O)N[C@@H](CCC(=O)O)C(=O)NC(C)(C)C(=O)N[C@@H](CC(C)C)C(=O)N[C@@H](CCC(=O)O)C(=O)N[C@@H](C)C(=O)NCC(=O)NCC(N)=O)C(C)C)C(=O)O)C(=O)O` [Peptide 70] (H-H[Aib]QGS[αMeF]TSDVSK[αMeF]LDSK([PEG4-γGlu-γGlu-Stearoyl])RAQD[αMeF]VE[Aib]LEAGG-NH2): in test [1], the 50% effective concentration (EC50) is 1.55 pM and the “% Relative Potency Ratio” value stood at 39.4. The EC50 in test [2] worked out at 30.9 pM.

On to `CCCCCCCCCCCCCCCC(=O)N[C@@H](CCC(=O)N[C@@H](CCC(=O)NCCOCCOCCOCCOCCC(=O)NCCCC[C@H](NC(=O)[C@H](CO)NC(=O)[C@H](CC(=O)O)NC(=O)[C@H](CC(C)C)NC(=O)[C@](C)(Cc1ccccc1)NC(=O)[C@H](CCCCN)NC(=O)[C@H](CO)NC(=O)[C@@H](NC(=O)[C@H](CC(=O)O)NC(=O)[C@H](CO)NC(=O)[C@@H](NC(=O)[C@](C)(Cc1ccccc1)NC(=O)[C@H](CO)NC(=O)CNC(=O)[C@H](CCC(N)=O)NC(=O)C(C)(C)NC(=O)[C@@H](N)Cc1c[nH]cn1)[C@@H](C)O)C(C)C)C(=O)N[C@@H](C)C(=O)N[C@@H](C)C(=O)N[C@@H](CCC(N)=O)C(=O)N[C@@H](CC(=O)O)C(=O)N[C@@](C)(Cc1ccccc1)C(=O)N[C@H](C(=O)N[C@@H](CCC(=O)O)C(=O)NC(C)(C)C(=O)N[C@@H](CC(C)C)C(=O)N[C@@H](CCC(=O)O)C(=O)N[C@@H](C)C(=O)NCC(=O)NCC(N)=O)C(C)C)C(=O)O)C(=O)O` [Peptide 72] (H-H[Aib]QGS[αMeF]TSDVSK[αMeF]LDSK([PEG4-γGlu-γGlu-Palmitoyl])AAQD[αMeF]VE[Aib]LEAGG-NH2), for which the EC50 in test [1] amounted to 3.42 pM; in test [2] it was 73.7 pM. For the same compound, the “% Relative Potency Ratio” value in test [1] was found to be 42.6.

These data come from patent US20250353891A1 (MEDIMMUNE LIMITED, priority 2022, published 2025).
